Measured values from article PMC10057480, “Expanding the Library of 1,2,4-Oxadiazole Derivatives: Discovery of New Farnesoid X Receptor (FXR) Antagonists/Pregnane X Receptor (PXR) Agonists” (Molecules, 2023).

Tests used:
[1] = Metabolic stability in human liver S9 fraction; assay type: in vitro ADME; conditions: pH 7.4, 1 μM compound, 37 °C
Description: Human liver S9 fraction (Sigma-Aldrich, St. Louis, MO, USA) was used. All incubations were performed in duplicate in a thermoblock (Dlab dry bath HB 120-S) at 37 °C. The incubation mixtures contained 1 μM compound with 0.1% DMSO used as a vehicle, human liver S9 fraction (0.3 mg of protein per mL), 5 mM taurine, 5 mM glycine, 5 mM glucose 6-phosphate, 5 mM GSH, 1 mM NADPH, 1 mM ATP, 0.4 mM CoA, 0.4 mM UDPGA, 0.1 mM PAPS, and 0.4 U·mL^−1 glucose 6-phosphate dehydrogenase. All the cofactors were dissolved in a 50 mM potassium phosphate buffer (pH 7.4), containing 5 mM MgCl2, for a final volume of 0.25 mL. Aliquots of 25 µL were removed at 0, 5, 15, 30, 45, 60, and 90 min after S9 addition, and the reaction was stopped by adding 100 μL of ice-cold MeOH. The samples were centrifuged for 10 min at 10,000 rpm, and the supernatants were transferred into vials for LC-MS/MS analysis. The slope of the linear regression of the curve obtained by reporting the natural logarithm of compound area versus incubation time (−k) was used in the conversion to in vitro t1/2 values, calculated as t1/2 = −ln(2)/k. In vitro intrinsic clearance (Clint expressed as μL/min/mg) was obtained by first calculating V using the formula: V = volume of reaction (μL)/protein of liver microsomes (mg); intrinsic clearance was then calculated as: Clint = (V × ln2)/t1/2.

[2] = tested on: FXR target genes (BSEP, OSTα, NTCP) in HepG2 cells; assay: qPCR of FXR target genes in HepG2 cells; assay type: cell-based; conditions: 6-ECDCA 10 μM plus compound
Description: (§1) HepG2 and CaCo2 cell lines, obtained from ATCC, were routinely cultured in Eagle’s MEM and high-glucose DMEM, respectively, supplemented with 10% FBS, 1% glutamine, and penicillin/streptomycin. For in vitro experiments, HepG2 (2 × 106) cells were stimulated with 6-ECDCA at a concentration of 10 µM alone or in combination with compound 5 or 11, and CaCo2 cells were exposed to TNFα (100 ng/mL) alone or in combination with rifaximin, compound 5, or 11.
(§2) Total RNA was isolated from the HepG2 and CaCo2 cell lines using TRI reagent (Zymo Research) and Direct-zol™ RNA MicroPrep w/Zymo-Spin™ IIC Columns (Zymo Research, Irvine, CA, USA). After purification from genomic DNA using DNase I (Thermo Fisher Scientific, Waltham, MA, USA), 2 μg of RNA from each sample was reverse transcribed using Kit FastGene Scriptase Basic (Nippon Genetics, Mariaweilerstraße, Düren, Germany) in 20-μL of reaction volume, and 50 ng of cDNA was amplified in a 20-μL solution containing 200 nM of each primer and 10 μL of PowerUp™ SYBR™ Green Master Mix (Thermo Fisher Scientific, Waltham, MA, USA) using a Quantstudio 3 system (Applied Biosystems, Foster City, CA, USA). The relative mRNA expression was calculated according to the ΔCt method. The primer used were as follows (forward and reverse): hGapdh (for […]; rev […]), hBsep (for […]; rev […]), hOstα (for […]; rev […]), hNtcp (for […]; rev […]), hPxr (for GCAAGGGCTTTTTCAGGAG; rev GGGTCTTCCGGGTGATCT), hIl-8 (for […]; rev […]), hIl-1β (for […]; rev […]).

[3] = tested on: Human-CaCo2 cells stimulated with TNFα; assay: qPCR of PXR and inflammatory cytokines in TNFα-stimulated CaCo2 cells; assay type: cell-based; conditions: TNFα 100 ng/mL plus compound 10 μM
Description: as §1, §2

| half-life at 1 µM [1] [h] | microsomal CLint at 1 µM [1] [µL/min/mg] | SMILES | Effect on BSEP mRNA expression induced by 6-ECDCA [2] | Effect on NTCP mRNA expression [2] | Effect on OSTα mRNA expression induced by 6-ECDCA [2] | Effect on proinflammatory factors caused by TNFα stimulation [3] |
| --- | --- | --- | --- | --- | --- | --- |
| 1.15 | 33.7 | CCCCCN1CCC(c2nc(-c3ccc4ccccc4c3)no2)CC1 [Compound 5, 3-(Naphthalen-2-yl)-5-(1-pentylpiperidin-4-yl)-1,2,4-oxadiazole] | reversed the effect | showed antagonistic activity | only a trend | reduced changes in the production of proinflammatory factors |
| 3.4 | 11.3 | OCc1ccc(CN2CCC(c3nc(-c4ccc5ccccc5c4)no3)CC2)cc1 [Compound 11, 5-[1-(4-(Hydroxymethyl)benzyl)piperidin-4-yl]-3-(naphthalen-2-yl)-1,2,4-oxadiazole] | reversed the effect |  | only a trend | reduced changes in the production of proinflammatory factors |
